Test results from patent EP2966448B1, “METHOD FOR THE PREDICTION OR PROGNOSIS OF THE RESPONSE OF A HUMAN SUBJECT SUFFERING FROM CANCER TO TREATMENT WITH AN ANTAGONIST OF THE NK1 RECEPTOR” (priority 2013, dated 2014).
Like-named read-outs stand apart in the source and are kept apart here.

Legend:
Pancreatic carcinoma = assay: Inhibition of primary tumor cell cultures (48 hours) vs NK1 receptor immunostaining (Example 1); type: cell-based; conditions: Homo sapiens, 1 micromolar, read-out: Percentage of inhibition of cell cultures
Experimental: (§1) Cell cultures. To obtain tumor cells from human primary tumors we used the method described in De Bari et al. (De Bari et al. 2001). Briefly, small pieces of the tumors were digested into a hyaluronidase solution (Sigma-Aldrich, USA) at a concentration of 1 mg/ml during 15 minutes at 37°C, and then they were treated with 6 mg/ml of collagenase type IV (Invitrogen) during 2 hours at 37°C. Consecutively, cells were washed, and resuspended in the DMEM culture medium with high concentration of glucose (Dulbecco's Modified Eagle's Medium, Invitrogen) supplemented with 1% of antibiotics-antimycotics (Invitrogen) and with 1% of sodium pyruvate (Invitrogen), and the cells were seeded in culture slides at a concentration of 10.000 cells per square centimeter. When cells reached confluence, the adherent cells were separated using sterile trypsin at 0,5% (Invitrogen) and they were used among passages 3 and 9. For the assays shown next, tumor cells were seeded on slides at a concentration of 25.000 cells per well. A total of 6 wells containing the tumor cells were used as survival control. […] All the cultures were kept during 48 hours and later on recollected for their analysis.
(§2) Immunohistochemistry techniques. The presence of NK1 receptors was also analyzed using immunohistochemistry techniques. Briefly, a sample of each of the cultures of the cell lines used in the present invention, was centrifuged (5 minutes at 1.500 rpm) and the pellet obtained was dehydrated using increasing concentrations of ethanol and, finally, xylol. Then, said dehydrated samples were embedded in paraffin, creating a block of cells. Such paraffin blocks were cut with a microtome at 5 microns thickness, and were placed on microscope slides adequate to perform immunohistochemistry techniques. Consecutively, they were de-paraffinized by immersing them in xylol, to be finally hydrated using a solution containing decreasing concentrations of ethanol, and finally submerged them into water. […] After this, the samples were left to cool down at room temperature for 10 minutes. The endogenous peroxidase activity was blocked with 3% peroxide of hydrogen for 30 minutes at room temperature. After washing the samples with 0.05 M of Tris buffer, they were incubated with 10% non-immune pork serum at for 30 minutes at room temperature. To analyze the expression of NK1 receptors, the cellular samples were incubated in the presence of anti-NK1 antibodies (S8305, Sigma-Aldrich) diluted 1:1000, overnight at 4°C. Afterwards, the samples were washed in Tris buffer 0.05 M at room temperature. The next step was the addition of Envision System-HRP (Dako) reagents for 30 minutes at room temperature. Then, the samples were washed again in Tris buffer 0.05 M and the immunoreactivity was visualized through light microscopy with a chromogenic solution containing 3,3'-Diaminobenzidine (DAB+; Dako, USA). To differentiate the cell nuclei, they were slightly stained with hematoxylin. As negative control, it was used samples not incubated with the primary antibody anti-NK1, which was replaced by non-immune serum. All the samples were evaluated.
(§3) To value the immunostaining in each of the cases six cuts were performed to be analyzed by the immunohistochemistry technique. In each of the six cuts, it was counted cells in 20 fields (magnification 400x) using an Olympus microscope (model CX31). In each field it was counted the total number of cells and the number of cells presenting immunostaining, calculating afterwards the percentage of cells which presented immunostaining.

Ewing Sarcoma = assay: as above; type: cell-based; conditions: Homo sapiens, 1 micromolar, read-out: Percentage of inhibition of cell cultures
Experimental: as §1, §2, §3

[1] = test system: human primary tumor cells; assay: Inhibition of primary tumor cell cultures vs absence or presence of ERK  protein (Example 3; tumor type per table line); type: cell-based; conditions: Non Hodgkin Lymphoma T (diffuse T cell lymphoma), 100 micromolar
Experimental: (§4) Cell cultures. […] Briefly, small pieces of the tumors were digested into a hyaluronidase solution (Sigma-Aldrich, USA) at a concentration of 1 mg/ml during 15 minutes at 37°C, and then they were treated with 6 mg/ml of collagenase type IV (Invitrogen) during 2 hours at 37°C. Consecutively, cells were washed, and resuspended in the DMEM culture medium with high concentration of glucose (Dulbecco's Modified Eagle's Medium, Invitrogen) supplemented with 1% of antibiotics-antimycotics (Invitrogen) and with 1% of sodium pyruvate (Invitrogen), and the cells were seeded in culture slides at a concentration of 10.000 cells per square centimeter. When cells reached confluence, the adherent cells were separated using sterile trypsin at 0,5% (Invitrogen) and they were used among passages 3 and 9. For the assays shown next, tumor cells were seeded on slides at a concentration of 25.000 cells per well. A total of 6 wells containing the tumor cells were used as survival control. […] All the cultures were kept during 48 hours and later on recollected for their analysis.
Consecutively, the cells were placed in cultures in the presence of several antagonists of the NK1 receptor.
In each case it was determined the presence or absence of the downstream effector in the MAP Kinases ERK pathway.
To determine the presence of the ERK protein, it was performed a Western Blot technique, using as primary antibody: Phospho-p44/42 MAPK (Erk1/2) (Thr202/Tyr204) (D13.14.4E) XP® Rabbit mAb (4370, Cell Signalling). To determine the presence of the MEK protein, it was performed the Western Blot technique, using as primary antibody Phospho-MEK1/2 (Ser217/221) (9121, Cell Signalling).
The antibody against NK1 receptor (Table 21) was used at 1/50 concentration. The percentages of inhibition are expressed in percentages of variation in relation to control ± standard deviation.

[2] = test system: Non Hodgkin Lymphoma T (diffuse T cell lymphoma); assay: Inhibition of primary tumor cell cultures vs Kras mutation (Example 2); type: cell-based, human; conditions: Homo sapiens, T-cell, Cases with Kras mutated; 100 micromolar; read-out: Percentage of inhibition of cell cultures
Experimental: as §1
(§5) In each case the presence or not of mutations in K-ras gene was determined.
(§6) To determine the existence of mutations in the K-ras gene DNA from cancer tumor cells was extracted from samples obtained from the different cancer tumor cells, using DNA extraction kits from Takara (Madison, WI, US) or Ambion (Huntingdon, Cambridgeshire, United Kingdom), following the manufacturer's instructions, and as it has been previously published (Di Fiore F, et al. 2007). Consecutively it was analyzed by sequencing the exon 2 of the KRAS gene, , by means of PCR amplification from previously extracted cancer tumor DNA, using the following sense primer (SEQ ID NO. 15): 5'-[sequence]-3' and anti-sense primer (SEQ ID NO. 16): 5'-[sequence]-3'. After the purification using the Qiagen extraction kit, the PCR products were sequenced using the Big Dye Terminator Kit V3.1 (Applied Biosystems, Foster City, CA, U.S.) and an ABI Prism 377 or 3100 DNA sequencer (Applied Biosystems). The presence of a heterozygous mutation in the KRAS gene in cancer tumor cells of the cultures was defined as the appearance of a mutant peak of a height of at least a third of the wild type. All the sequence analysis were executed at least twice in two independent PCR.
(§7) The percentages of inhibition are expressed in percentage of variation in relation to control ± standard deviation.

[3] = test system: Thyroid carcinoma (follicular carcinoma); assay: as above; type: cell-based, human; conditions: Homo sapiens, Cases with Kras mutated; 100 micromolar; read-out: Percentage of inhibition of cell cultures
Experimental: To obtain tumor cells from human primary tumors we used the method described in De Bari et al. (De Bari et al. 2001). Briefly, small pieces of the tumors were digested into a hyaluronidase solution (Sigma-Aldrich, USA) at a concentration of 1 mg/ml during 15 minutes at 37°C, and then they were treated with 6 mg/ml of collagenase type IV (Invitrogen) during 2 hours at 37°C. Consecutively, cells were washed, and resuspended in the DMEM culture medium with high concentration of glucose (Dulbecco's Modified Eagle's Medium, Invitrogen) supplemented with 1% of antibiotics-antimycotics (Invitrogen) and with 1% of sodium pyruvate (Invitrogen), and the cells were seeded in culture slides at a concentration of 10.000 cells per square centimeter. When cells reached confluence, the adherent cells were separated using sterile trypsin at 0,5% (Invitrogen) and they were used among passages 3 and 9. For the assays shown next, tumor cells were seeded on slides at a concentration of 25.000 cells per well. A total of 6 wells containing the tumor cells were used as survival control. […] All the cultures were kept during 48 hours and later on recollected for their analysis.
as §5, §6
(§8) The antibody against NK1 receptor (Table 16) was used at 1/50 concentration. The percentages of inhibition are expressed in percentage of variation in relation to control ± standard deviation.

Endometrium carcinoma = assay: as above; type: cell-based, human; conditions: Homo sapiens, Cases with Kras mutated; 100 micromolar; read-out: Percentage of inhibition of cell cultures
Experimental: as §4, §5, §6, §8

[4] = test system: Non Hodgkin Lymphoma B (diffuse B cell lymphoma); assay: as above; type: cell-based, human; conditions: Homo sapiens, B-cell, Cases with Kras mutated; 100 micromolar; read-out: Percentage of inhibition of cell cultures
Experimental: as §1, §5, §6, §7

Myeloma = assay: Inhibition of primary tumor cell cultures (48 hours) vs NK1 receptor immunostaining (Example 1); type: cell-based; conditions: Homo sapiens, 1 micromolar, read-out: Percentage of inhibition of cell cultures
Experimental: as §1, §2, §3

Burkitt Lymphoma [5] = assay: as above; type: cell-based; conditions: Homo sapiens, 1 micromolar, read-out: Percentage of inhibition of cell cultures
Experimental: as §1, §2, §3

[6] = test system: Malignant Fibrous Histiocytoma; assay: as above; type: cell-based; conditions: Homo sapiens, 1 micromolar, read-out: Percentage of inhibition of cell cultures
Experimental: as §1, §2, §3

Glioma = assay: as above; type: cell-based; conditions: Homo sapiens, 1 micromolar, read-out: Percentage of inhibition of cell cultures
Experimental: as §1, §2, §3

[7] = test system: Lung carcinoma (non small cell type); assay: as above; type: cell-based; conditions: Homo sapiens, 1 micromolar, read-out: Percentage of inhibition of cell cultures
Experimental: as §1, §2, §3

[8] = test system: Undifferentiated Pleomorphic Sarcoma (malignant fibrous histiocytoma grade 3); assay: Inhibition of primary tumor cell cultures vs Kras mutation (Example 2); type: cell-based, human; conditions: Homo sapiens, Cases with Kras mutated; 100 micromolar; read-out: Percentage of inhibition of cell cultures
Experimental: as §1, §5, §6, §7

[9] = test system: human primary tumor cells; assay: Inhibition of primary tumor cell cultures vs low or high expression of the truncated form of NK1 receptor (Example 5; tumor type per table line); type: cell-based; conditions: 100 micromolar
Experimental: as §1
The presence of the truncated form of NK1 receptor was determined and then cells were cultured in presence of several antagonists of the NK1 receptor.
In each case the presence of the truncated form of the NK1 receptor was determined.
To determine the presence of the truncated form of the gene of NK1 receptor PCR technique was performed (Polymerase Chain Reaction). The extraction of RNA, amplifications of PCR, cycle conditions and quantitative analysis were executed as it has been previously described. The specific primers were the following: For the full-length NK1R receptor (NM_001058.3; forward (SEQ ID NO: 17)-: 5'-[sequence]-3 ' and reverse- (SEQ ID NO:18): 5'-[sequence]-3') and for the truncated NK1receptor (NM_015727.2; forward (SEQ ID NO: 19): 5'-[sequence]-3 and reverse (SEQ ID NO;20): 5'-[sequence]-3').
Cases were distributed in two groups: • Group A -low expression of the truncated form of NK1 receptor- for those cases wherein the expression of the truncated form of NK1 receptor was less than double the expression of the full length form of such receptor. • Group B -high expression of the truncated form of NK1 receptor- for those cases wherein the expression of the truncated form of the NK1 receptor was higher than double the expression of the full length form of such receptor.
The percentages of inhibition are expressed in percentage of variation in relation to the control ± standard deviation.

[10] = test system: human primary tumor cells; assay: Inhibition of primary tumor cell cultures vs absence or presence of AKT protein (Example 4; tumor type per table line); type: cell-based; conditions: Non Hodgkin Lymphoma B (diffuse B cell lymphoma); cases with presence of AKT; 100 micromolar
Experimental: as §4
Afterwards, the cells were cultured in presence of several antagonists of the NK1 receptor.
In each case it was determined the presence or absence of the AKT protein effector downstream in the PI3 Kinases pathway.
To determine the presence of the AKT protein in the different cultures Western Blot technique was performed (following the description in example 1-Western Blot section), but using as primary antibody with reference: Akt (pan) (11E7) Rabbit mAb (4685, Cell Signalling).
The antibody against NK1 receptor (Table 26) was used at 1/50 concentration. The percentages of inhibition are expressed in percentage of variation in relation to control ± standard deviation.

[11] = test system: Carcinoma of the uterine cervix; assay: Inhibition of primary tumor cell cultures (48 hours) vs NK1 receptor immunostaining (Example 1); type: cell-based; conditions: Homo sapiens, 1 micromolar, read-out: Percentage of inhibition of cell cultures
Experimental: as §1, §2, §3

Burkitt Lymphoma [12] = assay: Inhibition of primary tumor cell cultures vs Kras mutation (Example 2); type: cell-based, human; conditions: Homo sapiens, Cases with Kras mutated; 100 micromolar; read-out: Percentage of inhibition of cell cultures
Experimental: as §1, §5, §6, §8

[13] = test system: Pancreatic carcinoma (Adenocarcinoma); assay: as above; type: cell-based, human; conditions: Homo sapiens, Cases with Kras mutated; 100 micromolar; read-out: Percentage of inhibition of cell cultures
Experimental: as §4, §5, §6, §8

Prostate carcinoma = assay: as above; type: cell-based, human; conditions: Homo sapiens, Cases with Kras mutated; 100 micromolar; read-out: Percentage of inhibition of cell cultures
Experimental: as §1, §5, §6, §7

[14] = NK1 receptor immunostaining Group 1 (less than 20% of the cells)
[15] = NK1 receptor immunostaining Group 2 (20-80% of the cells)
[16] = NK1 receptor immunostaining Group 3 (more than 80% of the cells)
[17] = NK1 receptor immunostaining Intensity grade 1
[18] = NK1 receptor immunostaining Intensity grade 2
[19] = NK1 receptor immunostaining Intensity grade 3

Structure (SMILES): C[C@@H](O[C@H]1OCCN(Cc2n[nH]c(=O)[nH]2)[C@H]1c1ccc(F)cc1)c1cc(C(F)(F)F)cc(C(F)(F)F)c1 [Aprepitant]
- inhibition at 1 µM (Pancreatic carcinoma; [14]): 12 ± 3%
- inhibition at 1 µM (Pancreatic carcinoma; [15]): 47 ± 1%
- inhibition at 1 µM (Pancreatic carcinoma; [16]): 94 ± 6%
- inhibition at 1 µM (Pancreatic carcinoma; [17]): 27 ± 7%
- inhibition at 1 µM (Pancreatic carcinoma; [18]): 56 ± 5%
- inhibition at 1 µM (Pancreatic carcinoma; [19]): 94 ± 3%
- inhibition at 1 µM (Ewing Sarcoma; [14]): 11 ± 2%
- inhibition at 1 µM (Ewing Sarcoma; [15]): 48 ± 6%
- inhibition at 1 µM (Ewing Sarcoma; [16]): 94 ± 6%
- inhibition at 1 µM (Ewing Sarcoma; [17]): 27 ± 6%
- inhibition at 1 µM (Ewing Sarcoma; [18]): 57 ± 4%
- inhibition at 1 µM (Ewing Sarcoma; [19]): 95 ± 6%
- Percentage of inhibition of cell cultures ([1]; cases with presence of ERK): 94±4 percentage
- Percentage of inhibition of cell cultures ([1]; cases without presence of ERK): 23±3 percentage
- inhibition at 100 µM [2]: 25 ± 4%
- inhibition at 100 µM [3]: 26 ± 3%
- inhibition at 100 µM (Endometrium carcinoma): 25 ± 4%
- inhibition at 100 µM [4]: 27 ± 5%
- inhibition at 1 µM (Myeloma; [14]): 11 ± 2%
- inhibition at 1 µM (Myeloma; [15]): 46 ± 5%
- inhibition at 1 µM (Myeloma; [16]): 95 ± 4%
- inhibition at 1 µM (Myeloma; [17]): 28 ± 5%
- inhibition at 1 µM (Myeloma; [18]): 55 ± 3%
- inhibition at 1 µM (Myeloma; [19]): 92 ± 5%
- inhibition at 1 µM (Burkitt Lymphoma [5]; [14]): 10 ± 2%
- inhibition at 1 µM (Burkitt Lymphoma [5]; [15]): 45 ± 6%
- inhibition at 1 µM (Burkitt Lymphoma [5]; [16]): 96 ± 4%
- inhibition at 1 µM (Burkitt Lymphoma [5]; [17]): 27 ± 5%
- inhibition at 1 µM (Burkitt Lymphoma [5]; [18]): 55 ± 3%
- inhibition at 1 µM (Burkitt Lymphoma [5]; [19]): 92 ± 5%
- inhibition at 1 µM [6, 14]: 11 ± 2%
- inhibition at 1 µM [6, 15]: 47 ± 2%
- inhibition at 1 µM [6, 16]: 95 ± 6%
- inhibition at 1 µM [6, 17]: 28 ± 7%
- inhibition at 1 µM [6, 18]: 56 ± 5%
- inhibition at 1 µM [6, 19]: 94 ± 3%
- inhibition at 1 µM (Glioma; [14]): 11 ± 4%
- inhibition at 1 µM (Glioma; [15]): 47 ± 4%
- inhibition at 1 µM (Glioma; [16]): 94 ± 6%
- inhibition at 1 µM (Glioma; [17]): 28 ± 7%
- inhibition at 1 µM (Glioma; [18]): 55 ± 6%
- inhibition at 1 µM (Glioma; [19]): 97 ± 4%
- inhibition at 1 µM [7, 14]: 9 ± 3%
- inhibition at 1 µM [7, 15]: 41 ± 3%
- inhibition at 1 µM [7, 16]: 94 ± 7%
- inhibition at 1 µM [7, 17]: 28 ± 5%
- inhibition at 1 µM [7, 18]: 57 ± 5%
- inhibition at 1 µM [7, 19]: 95 ± 3%
- inhibition at 100 µM [8]: 24 ± 3%
- Percentage of inhibition of cell cultures ([9]; Non Hodgkin Lymphoma B (diffuse B cell lymphoma), Cases with low expression of the truncated form of NK1 receptor (Group A)): 23±4 percentage
- Percentage of inhibition of cell cultures ([9]; Non Hodgkin Lymphoma T (diffuse T cell lymphoma), Cases with high expression of the truncated form of NK1 receptor (Group B)): 98±6 percentage
- Percentage of inhibition of cell cultures ([9]; Ovarian carcinoma (Adenocarcinoma), Cases with low expression of the truncated form of NK1 receptor (Group A)): 29±3 percentage
- Percentage of inhibition of cell cultures [10]: 95±3 percentage
- inhibition at 1 µM [11, 14]: 10 ± 2%
- inhibition at 1 µM [11, 15]: 48 ± 5%
- inhibition at 1 µM [11, 16]: 95 ± 5%
- inhibition at 1 µM [11, 17]: 27 ± 4%
- inhibition at 1 µM [11, 18]: 56 ± 4%
- inhibition at 1 µM [11, 19]: 95 ± 4%
- inhibition at 100 µM (Burkitt Lymphoma [12]): 24 ± 3%
- inhibition at 100 µM [13]: 22 ± 4%
- inhibition at 100 µM (Prostate carcinoma): 24 ± 3%
